Results as given in patent US20240261274A1, “TREATMENT OF MYC-DRIVEN CANCERS WITH GSPT1 DEGRADERS” (MONTE ROSA THERAPEUTICS, INC., priority 2021, published 2024).
pIC50: −log10 of the molar value. Where two headings read alike, the source gives them in different places.

Key:
GSPT1 = GSPT1 (Homo sapiens, UniProt P15170+Q96SW2); assay: GSPT1 degradation immunofluorescence assay in CAL-51 cells; type: cell-based; design: endogenous in cells; host or cells: CAL-51 (DSMZ ACC302); settings: 6 hours
Experimental: CAL-51 cells were purchased from DSMZ (cat. Number ACC302), sub-cultured in 90% Dulbecco's MEM (4.5 g/L glucose, Gibco 11965)+10% heat inactivated FBS (BioConcept, 2-01F1361) and incubated at 37° C., 5% CO2. For the assay, imaging microtiterplate Cell Carrier 96 Ultra (Perkin Elmer 6055302) were pre-coated with Fibronectin (Sigma F085, 30 μl at 0.2 μg/ml) in PBS (100 μl, Gibco 14190) for 45 min at room temperature, rinsed with PBS and CAL-51 cells (30K cells/well) were plated and let to adhere overnight. Cells were treated with compounds typically using a serial dilution ranging from 30 μM to 0.1 nM for 6 hours. Compounds were stored at 10 mM DMSO stocks. Vehicle (DMSO), positive (CC-885, 10 μM) and rescue controls (positive control plus 0.2 μM bortezomib) were also included at this stage. Cells were subsequently rinsed with PBS and fixed in 10% Formalin solution (50 μl, Sigma HT5011)) for 20 mins at room temperature. Following three consecutive PBS washes (100 μl), cells were permeabilized in 0.1% Triton X-100 in PBS (Sigma 93443, 50 μl) for 15 mins at room temperature. Following three further PBS washes, 50 μl blocking buffer (1% BSA, Sigma A4503, in PBS) was added for 45 min for signal-to-noise reduction. Primary antibody (human GSPT1, Sigma HPA052488) was diluted in blocking buffer (dil. 1/300, 35 μl/well) and incubated with the cells overnight at 4° C. After three PBS washes, Alexa-fluor 488 coupled secondary antibodies (Invitrogen, A32731, dil. 1/1000), Alexa-fluor 647-Phalloidin (Invitrogen, A22287, dil. 1/200) and DAPI (Thermo, #62248, dil. 1/1000) were diluted in blocking buffer and incubated with the samples for 2 hours at room temperature. After three final PBS washes, samples were conserved in 100 μl PBS in the dark, until measurement. Image acquisition was performed on the Operetta High-Content Imager (Perkin-Elmer). Fluorescence intensity of Alexa-Fluor 488 (GSPT1), Alexa-Fluor 647 (Actin) and DAPI (Nucleus) were measured. For the determination of GSPT1 DC50 values, a custom algorithm implemented in the PerkinElmer image analysis software Harmony-Acapella® was developed. After user-defined setting of adjustment parameters, the analysis was run identically without human intervention for all image fields. DAPI staining of the nuclei was used to determine the location of cells using standard nuclei detection modules. Segmentation artifacts were removed by threshold-based filters for area, roundness and intensity. The outline of the cells was determined analogously from the sum of the normalized, smoothed DAPI and Actin channel, starting from each nucleus. The Alexa-Fluor 488 (GSPT1) signal intensity in each cell was finally measured, in order to obtain a Mean intensity per cell. GSPT1 degradation (DC50) was calculated after normalization to controls and data import in CDD vault Database, using non-linear regression.

[1] = molecular target: T1, Full length wild-type cereblon CRBN (Homo sapiens, UniProt Q96SW2); assay: Fluorescence polarization (FP) assay indicating cereblon binding
T1 construct: Full length wild-type cereblon CRBN (80.0 nM, 10 μL) was incubated in assay buffer
Experimental: Compound activity was monitored in a fluorescence polarization (FP) homogeneous assay using 1-[5-({2-[2-(2-{[2-(2,6-dioxopiperidin-3-yl)-1,3-dioxo-2,3-dihydro-1H-isoindol-4-yl]oxy}acetamido)ethoxy]ethyl}carbamoyl)pentyl]-3,3-dimethyl-2-[(1E,3E)-5-[(2E)-1,3,3-trimethyl-5-sulfo-2,3-dihydro-1H-indol-2-ylidene]penta-1,3-dien-1-yl]-3H-indol-1-ium-5-sulfonate as a fluorescent probe. Unless otherwise stated, all reagents were purchased from Sigma Aldrich. Enzymatic reactions were conducted in Perkin-Elmer Black 384 well ProxiPlate Plus (catalogue no. 6008269) in 10 μL total volume. Full length wild-type cereblon CRBN (80.0 nM, 10 μL) was incubated in assay buffer containing 20 mM HEPES (pH 8.0), […], 0.5 mM TCEP and 0.05% Tween 20 in the presence or absence of compound (300 nL). Inhibitors were stored as 10 mM DMSO stocks in an inert environment (low humidity, dark, low oxygen, room temperature) using the Storage Pod System. Compounds and DMSO were dispensed using the Echo E5XX (Labcyte Inc. USA) to give concentrations from 300 to 0.937 or 3000 to 9.3 nM in a 12 data point curve. […] Following incubation at room temperature for 30 min, the assay was initiated by dispensing the probe to a final concentration of 5 nM (2.5 nL of a 20 μM stock) using the Echo E5XX. FP was measured after a period of 12 hours using a Pherastar plate reader (BMG Labtech, Germany) exciting at 590 nm and measuring the amount of parallel and perpendicular light at 675 nm. The FP signal was subsequently normalized to the no-compound control (i.e., DMSO). Analysis and IC50 values were derived using Dotmatics (Dotmatics UK) software.

[2] = Table 5B, read-out: Activity for GSPT1 degradation, Code (DC50)
[3] = bound stated, read-out: IC50 value
[4] = Table 4, read-out: Activity for GSPT1 degradation, Code (DC50)

Sequence of GSPT1 (P15170 whole entry): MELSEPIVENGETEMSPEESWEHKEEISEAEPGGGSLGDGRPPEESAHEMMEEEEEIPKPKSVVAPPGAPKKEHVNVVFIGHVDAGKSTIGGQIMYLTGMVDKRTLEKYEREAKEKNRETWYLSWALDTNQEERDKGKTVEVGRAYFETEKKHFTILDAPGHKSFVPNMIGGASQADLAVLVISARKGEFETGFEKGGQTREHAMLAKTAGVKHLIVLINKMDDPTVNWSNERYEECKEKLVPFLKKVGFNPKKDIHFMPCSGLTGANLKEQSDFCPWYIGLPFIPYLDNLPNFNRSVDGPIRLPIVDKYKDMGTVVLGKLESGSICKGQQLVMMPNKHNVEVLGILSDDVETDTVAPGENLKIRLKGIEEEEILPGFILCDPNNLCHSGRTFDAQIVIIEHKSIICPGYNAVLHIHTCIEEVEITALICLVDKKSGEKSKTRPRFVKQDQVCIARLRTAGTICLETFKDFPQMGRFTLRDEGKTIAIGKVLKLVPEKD
Sequence of GSPT1 (Q96SW2 whole entry): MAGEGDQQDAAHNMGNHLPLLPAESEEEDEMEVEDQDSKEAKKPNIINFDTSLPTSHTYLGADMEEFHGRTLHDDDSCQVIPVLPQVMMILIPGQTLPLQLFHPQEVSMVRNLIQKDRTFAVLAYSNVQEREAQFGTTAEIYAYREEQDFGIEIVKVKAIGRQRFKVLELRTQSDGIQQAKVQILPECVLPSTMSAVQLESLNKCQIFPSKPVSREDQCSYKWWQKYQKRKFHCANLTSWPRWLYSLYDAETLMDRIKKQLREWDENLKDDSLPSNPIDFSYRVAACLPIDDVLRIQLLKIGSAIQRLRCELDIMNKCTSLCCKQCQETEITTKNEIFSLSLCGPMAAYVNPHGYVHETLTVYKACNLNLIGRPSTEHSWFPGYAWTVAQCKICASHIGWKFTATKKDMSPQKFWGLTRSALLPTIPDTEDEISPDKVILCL
Sequence of GSPT1 (Q16531 whole entry partner): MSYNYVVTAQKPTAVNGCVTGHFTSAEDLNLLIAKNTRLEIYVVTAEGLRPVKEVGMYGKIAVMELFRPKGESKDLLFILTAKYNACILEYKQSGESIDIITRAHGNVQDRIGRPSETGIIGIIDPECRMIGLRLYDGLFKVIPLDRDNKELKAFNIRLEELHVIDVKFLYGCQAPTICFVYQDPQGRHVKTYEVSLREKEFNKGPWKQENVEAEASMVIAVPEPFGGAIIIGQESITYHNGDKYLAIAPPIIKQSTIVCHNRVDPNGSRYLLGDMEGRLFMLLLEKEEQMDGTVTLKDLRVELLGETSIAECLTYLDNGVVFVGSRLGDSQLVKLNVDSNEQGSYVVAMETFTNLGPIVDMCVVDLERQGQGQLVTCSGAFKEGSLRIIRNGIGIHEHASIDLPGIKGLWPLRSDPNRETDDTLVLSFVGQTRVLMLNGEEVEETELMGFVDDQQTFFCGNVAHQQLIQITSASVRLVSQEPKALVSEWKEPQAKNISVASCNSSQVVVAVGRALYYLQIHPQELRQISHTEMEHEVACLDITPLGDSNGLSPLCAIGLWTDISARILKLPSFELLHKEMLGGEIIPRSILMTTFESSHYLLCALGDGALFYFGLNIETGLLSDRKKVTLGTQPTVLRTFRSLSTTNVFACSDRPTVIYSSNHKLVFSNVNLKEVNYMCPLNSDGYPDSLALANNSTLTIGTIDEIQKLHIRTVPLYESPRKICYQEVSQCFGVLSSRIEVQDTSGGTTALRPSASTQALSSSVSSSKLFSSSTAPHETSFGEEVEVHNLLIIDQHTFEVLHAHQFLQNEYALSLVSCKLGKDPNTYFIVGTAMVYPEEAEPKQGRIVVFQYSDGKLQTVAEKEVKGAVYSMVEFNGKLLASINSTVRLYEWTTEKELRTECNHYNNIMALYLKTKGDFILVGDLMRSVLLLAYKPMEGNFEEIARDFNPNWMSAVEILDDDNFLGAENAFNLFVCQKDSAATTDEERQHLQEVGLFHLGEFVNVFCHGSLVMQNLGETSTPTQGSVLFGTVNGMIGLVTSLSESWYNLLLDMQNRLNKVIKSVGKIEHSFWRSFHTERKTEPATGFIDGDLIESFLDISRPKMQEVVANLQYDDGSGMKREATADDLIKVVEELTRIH
T1 sequence (Q96SW2 whole entry): as the sequence (Q96SW2 whole entry) above

| SMILES | DC50 (GSPT1; [2]) [µM] | pIC50 ([1]; Table 3B, read-out: rFP IC50) | pIC50 [1, 3] | DC50 (GSPT1; [4]) [µM] |
| --- | --- | --- | --- | --- |
| COc1cc(COC(=O)Nc2cc(C)cc(F)c2)cc2c1CN(C1CCC(=O)NC1=O)C2=O (stereo not shown) [Compound 567] | ≤ 0.03 |  |  |  |
| CN(C)CC(=O)Oc1cccc(CNC(=O)NCc2ccc3c(c2)C(=O)N(C2CCC(=O)NC2=O)C3)c1 (stereo not shown) [Compound 136] |  |  | > 5.96 | > 0.3 |
| O=C1CCC(N2Cc3c(F)cc(COC(=O)Nc4cc(F)c(-c5ccccc5)c(F)c4)cc3C2=O)C(=O)N1 (stereo not shown) [Compound 530] | 0.03 to 0.3 | < 5.72 |  |  |
| COc1cc(COC(=O)Nc2ccc(N3CCC[C@@H]3C)nc2)cc2c1CN(C1CCC(=O)NC1=O)C2=O (stereo partly shown) [Compound 562] | 0.03 to 0.3 | ≥ 6.22 |  |  |
| CC(C)(C)c1ccc(NC(=O)OCc2cc(F)c3c(c2)C(=O)N(C2CCC(=O)NC2=O)C3)cc1 (stereo not shown) [Compound 510] | 0.03 to 0.3 | < 5.72 |  |  |
| C[C@@H]1CCCN1c1ccc(NC(=O)OCc2cc(F)c3c(c2)C(=O)N(C2CCC(=O)NC2=O)C3)cn1 (stereo partly shown) [Compound 523] | ≤ 0.03 | 5.92 to 6.22 |  |  |
| O=C1CCC(N2Cc3c(F)cc(COC(=O)Nc4ccc(F)c(OC(F)(F)F)c4)cc3C2=O)C(=O)N1 (stereo not shown) [Compound 514] | 0.03 to 0.3 | < 5.72 |  |  |
| COc1c(COC(=O)Nc2ccc(C)c(Cl)c2)ccc2c1C(=O)N(C1CCC(=O)NC1=O)C2 (stereo not shown) [Compound 570] | > 0.3 | < 5.72 |  |  |
| Cc1c(Cl)cc(NC(=O)NCc2ccc3c(c2)C(=O)N(C2CCC(=O)NC2=O)C3)cc1CN1CC2CC1CO2 (stereo not shown) [Compound 139] |  |  | > 5.96 | ≤ 0.1 |
| O=C1CCC(N2Cc3c(F)cc(COC(=O)Nc4ccc(F)c(Cl)c4)cc3C2=O)C(=O)N1 (stereo not shown) [Compound 532] | 0.03 to 0.3 | < 5.72 |  |  |
| Cc1cc(Cl)cc(NC(=O)OCc2cc(F)c3c(c2)C(=O)N(C2CCC(=O)NC2=O)C3)c1 (stereo not shown) [Compound 527] | 0.03 to 0.3 | 5.72 to 5.92 |  |  |
| O=C1CCC(N2Cc3c(F)cc(COC(=O)Nc4cc(F)cc(Cl)c4)cc3C2=O)C(=O)N1 (stereo not shown) [Compound 533] | 0.03 to 0.3 | < 5.72 |  |  |
| CC1(C)COc2cc(NC(=O)OCc3cc(F)c4c(c3)C(=O)N(C3CCC(=O)NC3=O)C4)ccc21 (stereo not shown) [Compound 517] | ≤ 0.03 | ≥ 6.22 |  |  |

Now from value to compound:

| DC50 (GSPT1; [2]) [µM] | pIC50 ([1]; Table 3B, read-out: rFP IC50) | pIC50 [1, 3] | DC50 (GSPT1; [4]) [µM] | SMILES |
| --- | --- | --- | --- | --- |
| ≤ 0.03 | < 5.72 |  |  | O=C1CCC(N2Cc3c(F)cc(COC(=O)Nc4cc(F)c(F)c(Cl)c4)cc3C2=O)C(=O)N1 (stereo not shown) [Compound 561] |
| ≤ 0.03 | 5.72 to 5.92 |  |  | CC(C)(C)c1ccc(NC(=O)OCc2cc(F)c3c(c2)C(=O)N(C2CCC(=O)NC2=O)C3)cn1 (stereo not shown) [Compound 509] |
| ≤ 0.03 | 5.72 to 5.92 |  |  | COc1cc(COC(=O)Nc2ccc(F)c(OC(F)(F)F)c2)cc2c1CN(C1CCC(=O)NC1=O)C2=O (stereo not shown) [Compound 539] |
| ≤ 0.03 | ≥ 6.22 |  |  | COc1cc(COC(=O)Nc2ccc(C3CCC3)cc2)cc2c1CN(C1CCC(=O)NC1=O)C2=O (stereo not shown) [Compound 557] |
| ≤ 0.03 | < 5.72 |  |  | O=C1CCC(N2Cc3c(F)cc(COC(=O)Nc4ccc(-c5ccccc5F)c(F)c4)cc3C2=O)C(=O)N1 (stereo not shown) [Compound 529] |
| > 0.3 | < 5.72 |  |  | Cc1ccc(NC(=O)OCc2ccc3c(c2Cl)C(=O)N(C2CCC(=O)NC2=O)C3)cc1Cl (stereo not shown) [Compound 572] |
| ≤ 0.03 | 5.92 to 6.22 |  |  | Cc1cc(NC(=O)OCc2cc(F)c3c(c2)C(=O)N(C2CCC(=O)NC2=O)C3)cnc1-c1ccccc1 (stereo not shown) [Compound 520] |
| ≤ 0.03 | 5.92 to 6.22 |  |  | COc1cc(COC(=O)Nc2cc(F)cc(OC(F)F)c2)cc2c1CN(C1CCC(=O)NC1=O)C2=O (stereo not shown) [Compound 547] |
| ≤ 0.03 | < 5.72 |  |  | O=C1CCC(N2Cc3c(F)cc(COC(=O)Nc4ccc(C5CCC5)cc4)cc3C2=O)C(=O)N1 (stereo not shown) [Compound 522] |
| > 0.3 |  |  |  | COc1cc(COC(=O)Nc2cc(OC(F)(F)F)ccc2F)cc2c1CN(C1CCC(=O)NC1=O)C2=O (stereo not shown) [Compound 566] |
| > 0.3 | ≥ 6.22 |  |  | Cc1ccc(NC(=O)OCc2ccc3c(c2C)C(=O)N(C2CCC(=O)NC2=O)C3)cc1Cl (stereo not shown) [Compound 573] |
